Earlier results as cited in patent US7348299B2, “Cleansing bar with distributed polymeric network providing enhanced delivery” (Conopco, Inc., priority 2005, dated 2008).

settings: single component of 1:1 model perfume; no unit in table, K in Atm

| K (volatility constant) | Compound |
| --- | --- |
| 0.05 | CC(CC=O)CCCC(C)(C)O (stereo not shown) [hydroxycitonellal] |
| 120 | C=CC(C)CCC=C(C)C (stereo not shown) [citronellene] |
| 280 | CC1=CCC2CC1C2(C)C (stereo not drawn) [alpha-pinene] |
| 6 | CC(=O)OCCC(C)CCC=C(C)C (stereo not shown) [citronellyl acetate] |
| 0.42 | CC(C=O)Cc1ccc(C(C)(C)C)cc1 (stereo not shown) [lilial] |
| 265 | Cc1ccc(C(C)C)cc1 [p-cymene] |

Further lines, the compound ahead of its results:

| Compound | K (volatility constant) |
| --- | --- |
| CC(=O)OCc1ccccc1 [Benzyl acetate] | 0.32 |
| CC=O [acetaldehyde] | 0.008 |
| CCC(C)(CCCC(C)C)OC(C)=O (stereo not shown) [Tetrahydrolinalylacetate] | 5.5 |
| OCCc1ccccc1 [Phenylethylalcohol] | 0.1 |
| C=C(C)[C@H]1CC=C(C)CC1 [Limonene] | 98 |
| Methyl ionone | 5.2 |

settings: single component of 1:1 model perfume; first/second component

| φo/w (octanol/water partition coefficient) | Compound |
| --- | --- |
| 34.7 | CC(CC=O)CCCC(C)(C)O (stereo not shown) [hydroxycitonellal] |
| 43,651 | C=CC(C)CCC=C(C)C (stereo not shown) [citronellene] |
| 29648 | CC1=CCC2CC1C2(C)C (stereo not drawn) [alpha-pinene] |
| 19,054 | CC(=O)OCCC(C)CCC=C(C)C (stereo not shown) [citronellyl acetate] |
| 32,360 | CC(C=O)Cc1ccc(C(C)(C)C)cc1 (stereo not shown) [lilial] |
| 31,000 | Cc1ccc(C(C)C)cc1 [p-cymene] |

More lines, now with the values behind:

| Compound | φo/w (octanol/water partition coefficient) |
| --- | --- |
| CC(=O)OCc1ccccc1 [Benzyl acetate] | 81 |
| CC=O [acetaldehyde] | 167 |
| CCC(C)(CCCC(C)C)OC(C)=O (stereo not shown) [Tetrahydrolinalylacetate] | 31,600 |
| OCCc1ccccc1 [Phenylethylalcohol] | 22.9 |
